# Earlier results in patent US20140004171A1, “TREATMENT OF ENDOMETRIOSIS BY INTRAVAGINAL ADMINISTRATION OF A LOW DOSE OF A SELECTIVE PROGESTERONE RECEPTOR MODULATOR (SPRM), ANTI-PROGESTIN, OR ANTI-PROGESTATIONAL AGENT” (ARSTAT Inc., priority 2011, published 2014).
# How the values were obtained:
# [1] = system: liver enzymes; settings: oral
# [2] = system: endometrial lining of the uterus; settings: oral
# [3] = system: women with endometriosis; settings: oral, 5 mg daily for 6 months, seven women
# [4] = system: women with endometriosis; settings: oral, 50 mg daily for 6 months, nine women
# [5] = system: women with endometriosis; settings: oral, 100 mg daily for three months
# [6] = system: uterine and fibroid volumes
structure (smiles),measurement,setting,value
COCC(=O)[C@@]1(OC(C)=O)CC[C@H]2[C@@H]3CCC4=CC(=O)CCC4=C3[C@@H](c3ccc(N(C)C)cc3)C[C@@]21C [CDB-4124],Safety finding that suspended Phase III studies,[1],significant increases in liver enzymes
COC[C@]1(OC)CC[C@H]2[C@@H]3CCC4=CC(=O)CCC4=C3[C@@H](c3ccc(/C=N/O)cc3)C[C@@]21C [asoprisnil],Safety finding that terminated Phase III studies,[2],changes in the endometrial lining of the uterus
CC#C[C@]1(O)CC[C@H]2[C@@H]3CCC4=CC(=O)CCC4=C3[C@@H](c3ccc(N(C)C)cc3)C[C@@]21C [mifepristone],Cyclic bleeding ceased,[3],all patients
same,Decrease of mean endometriosis scores,[3],20%
same,Pelvic pain improved,[3],six of seven
same,Amenorrhea without hypoestrogenism,[4],All patients
same,Pelvic pain and uterine cramping improved,[4],all patients
same,"Regression of endometriosis (laparoscopic assessment of endometrial implants, AFS score)",[4],55%
same,Amenorrhea reported,[5]; six normally cycling women with endometriosis,all study participants
same,Change in the extent of endometriosis (follow-up laparoscopy),[5]; six women,no significant change
same,Improvement in pelvic pain,[5]; six women,all women
same,Oral dose effective in the reduction of uterine and fibroid volumes and related symptoms,[6],≥ 10 mg/day
same,Incidence of amenorrhea,"[6]; oral, 2.5 mg/day",lower incidence of amenorrhea
same,Reduction of uterine volume,"[6]; oral, 2.5 mg/day",appreciably smaller reduction of uterine volume
same,Ability to reduce uterine volume and eliminate some fibroid-related symptoms,"[6]; oral, 5 mg/day",limited
same,"Incidence of side effects (endometrial hyperplasia, hot flashes, elevated liver enzymes)","[6]; oral, 10 mg/day or higher",greater than desired
